Reference: patent US8501943B2, “Sodium salt of 5-cyclopropyl-2-{[2-(2,6-difluorophenyl)pyrimidin-5-yl]amino}benzoic acid as DHODH inhibitor” (Almirall, S.A., priority 2009, dated 2013)
Structures can show the parent of a compound that is named as a salt.

Legend:
Format in all cases: physicochemical
[1] = Crystallisation tests of salts with pharmaceutically acceptable bases; conditions: for Solid form obtained: salt crystallisation tests
Source text: Crystallisation tests of salts of 5-cyclopropyl-2-{[2-(2,6-difluorophenyl)pyrimidin-5-yl]amino}benzoic acid with a broad range of pharmaceutically acceptable bases (comprising among others ammonia, L-arginine, choline, lysine, magnesium methoxide, meglumine, potassium methoxide and sodium hydroxide) in a range of different pharmaceutically acceptable solvents (including among others acetone, acetonitrile, ethyl acetate, chloroform, N,N-dimethylformamide, ethanol, isopropanol, nitromethane, dimethyl carbonate, methanol, methyl tert-butyl ether, tetrahydrofurane, diisopropyl ether, cyclohexane, butanol, water, 3-pentanone, toluene, chlorobenzene and isobutyl acetate) have been undertaken.
The salts from L-arginine, choline, magnesium methoxide and potassium methoxide were crystalline but hygroscopic. Additionally, some of said salts have different polymorphic phases.

Water-solubility test = conditions: 25° C. (room temperature), expressed as acid
Procedure: The solubility of Example 1 in water at room temperature was determined together with the solubility of the corresponding free acids.

[2] = Differential scanning calorimetry (DSC) thermogram; conditions: heated 30 to 350° C. at 10° C./min
Procedure: The differential scanning calorimetry (DSC) thermograms analyses were obtained using a DSC-821 Mettler-Toledo instrument, serial number 5117423874. Samples were weighed into an aluminium pan, an aluminium lid placed on top of the sample and compressed with a brass rod. Samples were equilibrated at 30° C. and heated at 10° C./min to 350° C. The instrument was calibrated using indium and zinc standards.
FIG. 1 illustrates the DSC thermogram of the sodium salt of 5-cyclopropyl-2-{[2-(2,6-difluorophenyl)pyrimidin-5-yl]amino}benzoic acid.

[3] = Dynamic Vapour Sorption (DVS) profile; conditions: 25° C.
Procedure: Dynamic Vapour Sorption (DVS) profiles were obtained using an Igasorp Hiden Isochema instrument (serial number IGA-SA-066). After an initial stabilization period, at least two isotherms (at 25° C.) were obtained for each sample: a moisture sorption from 0 to 95% relative humidity and moisture desorption from 95% relative humidity to dryness. Both isotherms were performed in 10% humidity steps, with a minimum time of 10 minutes and a maximum time of 30 minutes for each step.
FIG. 2 illustrates the DVS pattern of the sodium salt of 5-cyclopropyl-2-{[2-(2,6-difluorophenyl)pyrimidin-5-yl]amino}benzoic acid. Mass increase was measured at 80% (0.7% increase) and 90% (4.2% increase) relative humidity (RH).

| SMILES | Hygroscopicity / deliquescence of the salt [1] | Solid form obtained [1] | also measured |
| --- | --- | --- | --- |
| C[N+](C)(C)CCO.O=C([O-])c1cc(C2CC2)ccc1Nc1cnc(-c2c(F)cccc2F)nc1 [salt from choline] | hygroscopic | crystalline | – |
| CNCC(O)C(O)C(O)C(O)CO.O=C(O)c1cc(C2CC2)ccc1Nc1cnc(-c2c(F)cccc2F)nc1 [salt from meglumine] | – | either oils or amorphous solids | – |
| NCCCCC(N)C(=O)O.O=C(O)c1cc(C2CC2)ccc1Nc1cnc(-c2c(F)cccc2F)nc1 [salt from lysine] | – | either oils or amorphous solids | – |
| O=C([O-])c1cc(C2CC2)ccc1Nc1cnc(-c2c(F)cccc2F)nc1.[K+] [salt from potassium methoxide] | hygroscopic | crystalline | – |
| O=C(O)c1cc(C2CC2)ccc1Nc1cnc(-c2c(F)cccc2F)nc1 [Example C1, 5-cyclopropyl-2-{[2-(2,6-difluorophenyl)pyrimidin-5-yl]amino}benzoic acid] | – | – | Water Solubility @ 25° C. (mg/mL as acid) (Water-solubility test): 0.03 mg/mL |
| O=C(O)c1cc(C2CC2)ccc1Nc1cnc(-c2c(F)cccc2F)nc1 [Ex. 1, 5-cyclopropyl-2-{[2-(2,6-difluorophenyl)pyrimidin-5-yl]amino}benzoic acid, sodium salt] | neither hygroscopic nor deliquescent | – | Thermal stability (decomposition) by DSC [2]: does not suffer any decomposition at low-medium temperatures; Mass increase (DVS) ([3]; 80% relative humidity): 0.7%; Mass increase (DVS) ([3]; 90% relative humidity): 4.2%; Hygroscopicity according to DVS ([3]; sorption 0 to 95% RH): not hygroscopic; Hysteresis in DVS sorption/desorption ([3]; sorption/desorption isotherms): no hysteresis; Water Solubility @ 25° C. (mg/mL as acid) (Water-solubility test; sodium salt): 1.87 mg/mL |
| N=C(N)NCCCC(N)C(=O)O.O=C(O)c1cc(C2CC2)ccc1Nc1cnc(-c2c(F)cccc2F)nc1 [salt from L-arginine] | hygroscopic | crystalline | – |
